The values that follow come from EP2649091B1, “IMMUNE RESTRICTED PEPTIDES WITH INCREASED EFFICACY” (Stichting Het Nederlands Kanker Instituut, priority 2010, dated 2012).

The target in one assay is HLA-A0201 (Homo sapiens, UniProt P04439, D140Y/D185E/D98H/E176V/E277Q/G131W/G231S/I119V/I121R/I166T/I218V/L300P/L318F/N151K/N90K/P208A/P217A/Q86G/Q94H/R138H/R169H/T345S). Type of assay: binding.
Assay [1] has as its system SVYDFFVWL (TRP-2 180-188) reactive T cells. Nature of the assay: T cell activation time course assay, IFNγ production (FACS), TRP-2 epitope. The settings on record: for % CD8+ T cells producing IFN-γ peptide concentrations in picomolar 24H 0.5 / Geometric mean IFN-γ in arbitrary fluorescence units peptide concentrations in picomolar 24H 0.5 / % CD8+ T cells producing IFN-γ peptide concentrations in picomolar 48H 0.5 / Geometric mean IFN-γ in arbitrary fluorescence units peptide concentrations in picomolar 48H 0.5: peptide 0.5 pM; for % CD8+ T cells producing IFN-γ peptide concentrations in picomolar 24H 50 / Geometric mean IFN-γ in arbitrary fluorescence units peptide concentrations in picomolar 24H 50 / % CD8+ T cells producing IFN-γ peptide concentrations in picomolar 48H 50 / Geometric mean IFN-γ in arbitrary fluorescence units peptide concentrations in picomolar 48H 50: peptide 50 pM; for % CD8+ T cells producing IFN-γ peptide concentrations in picomolar 24H 5·10^3 / Geometric mean IFN-γ in arbitrary fluorescence units peptide concentrations in picomolar 24H 5·10^3 / % CD8+ T cells producing IFN-γ peptide concentrations in picomolar 48H 5·10^3 / Geometric mean IFN-γ in arbitrary fluorescence units peptide concentrations in picomolar 48H 5·10^3: peptide 5·10^3 pM.

For orientation: % inhibition means the relative decrease from the control value, in per cent. High values mean strong suppression, low ones little suppression. Regarding [PHG][2-AOC]YDFFVWL, at HLA-A0201, the “% inhibition at T=4H and T=24H FP 4h” value is given as 90%; the “% inhibition at T=4H and T=24H FP 24h” value came out at 75%. Moreover, in assay [1], the “% CD8+ T cells producing IFN-γ peptide concentrations in picomolar 24H 0.5” value amounted to 0%, the “Geometric mean IFN-γ in arbitrary fluorescence units peptide concentrations in picomolar 24H 0.5” value (“Geometric mean IFN-γ … in picomolar 24H 0.5” below) is given as 85 arbitrary fluorescence units, the “% CD8+ T cells producing IFN-γ peptide concentrations in picomolar 24H 50” value amounted to 14% and the “Geometric mean IFN-γ in arbitrary fluorescence units peptide concentrations in picomolar 24H 50” value (shortened to “Geometric mean IFN-γ … in picomolar 24H 50”) was 95 arbitrary fluorescence units. For the same substance, in assay [1], the “% CD8+ T cells producing IFN-γ peptide concentrations in picomolar 24H 5·10^3” value worked out at 30%, the “Geometric mean IFN-γ in arbitrary fluorescence units peptide concentrations in picomolar 24H 5·10^3” value (“Geometric mean IFN-γ … in picomolar 24H 5·10^3” below) was 224 arbitrary fluorescence units, the “% CD8+ T cells producing IFN-γ peptide concentrations in picomolar 48H 0.5” value turned out to be 1% and the “Geometric mean IFN-γ in arbitrary fluorescence units peptide concentrations in picomolar 48H 0.5” value (from here on “Geometric mean IFN-γ … in picomolar 48H 0.5”) was 75 arbitrary fluorescence units. Moreover, in assay [1], the “% CD8+ T cells producing IFN-γ peptide concentrations in picomolar 48H 50” value is given as 3%, the “% CD8+ T cells producing IFN-γ peptide concentrations in picomolar 48H 5·10^3” value is recorded as 33% and the “Geometric mean IFN-γ in arbitrary fluorescence units peptide concentrations in picomolar 48H 5·10^3” value (“Geometric mean IFN-γ … in picomolar 48H 5·10^3” below) is listed as 184 arbitrary fluorescence units.

As to [PHG][2-AOC]YDFFVW[PRG], at HLA-A0201, the “% inhibition at T=4H and T=24H FP 4h” value was determined as 83%; the “% inhibition at T=4H and T=24H FP 24h” value stood at 78%. In assay [1], the “% CD8+ T cells producing IFN-γ peptide concentrations in picomolar 24H 0.5” value turned out to be 0%, the “Geometric mean IFN-γ … in picomolar 24H 0.5” value is reported as 95 arbitrary fluorescence units, the “% CD8+ T cells producing IFN-γ peptide concentrations in picomolar 24H 50” value is 1% and the “Geometric mean IFN-γ … in picomolar 24H 50” value is on record as 68 arbitrary fluorescence units. In assay [1], the “% CD8+ T cells producing IFN-γ peptide concentrations in picomolar 24H 5·10^3” value was determined as 20%, the “Geometric mean IFN-γ … in picomolar 24H 5·10^3” value is 120 arbitrary fluorescence units, the “% CD8+ T cells producing IFN-γ peptide concentrations in picomolar 48H 0.5” value is on record as 1% and the “Geometric mean IFN-γ … in picomolar 48H 0.5” value is 79 arbitrary fluorescence units. Moreover, in assay [1], the “% CD8+ T cells producing IFN-γ peptide concentrations in picomolar 48H 50” value amounted to 0%, the “Geometric mean IFN-γ in arbitrary fluorescence units peptide concentrations in picomolar 48H 50” value (from here on “Geometric mean IFN-γ … in picomolar 48H 50”) is 78 arbitrary fluorescence units, the “% CD8+ T cells producing IFN-γ peptide concentrations in picomolar 48H 5·10^3” value stood at 0% and the “Geometric mean IFN-γ … in picomolar 48H 5·10^3” value was 78 arbitrary fluorescence units.

Regarding [PHG][CpALA]YDFFVWL, on HLA-A0201, the “% inhibition at T=4H and T=24H FP 4h” value is on record as 77%; the “% inhibition at T=4H and T=24H FP 24h” value worked out at 75%. Further, in assay [1], the “% CD8+ T cells producing IFN-γ peptide concentrations in picomolar 24H 0.5” value amounted to 1%, the “Geometric mean IFN-γ … in picomolar 24H 0.5” value is listed as 71 arbitrary fluorescence units, the “% CD8+ T cells producing IFN-γ peptide concentrations in picomolar 24H 50” value was determined as 12% and the “Geometric mean IFN-γ … in picomolar 24H 50” value is recorded as 87 arbitrary fluorescence units. Also, in assay [1], the “% CD8+ T cells producing IFN-γ peptide concentrations in picomolar 24H 5·10^3” value is 30%, the “Geometric mean IFN-γ … in picomolar 24H 5·10^3” value is on record as 221 arbitrary fluorescence units, the “% CD8+ T cells producing IFN-γ peptide concentrations in picomolar 48H 0.5” value worked out at 0% and the “Geometric mean IFN-γ … in picomolar 48H 0.5” value was 70 arbitrary fluorescence units. In assay [1], the “% CD8+ T cells producing IFN-γ peptide concentrations in picomolar 48H 50” value worked out at 6%, the “% CD8+ T cells producing IFN-γ peptide concentrations in picomolar 48H 5·10^3” value is on record as 34% and the “Geometric mean IFN-γ … in picomolar 48H 5·10^3” value is 183 arbitrary fluorescence units.

As to [PHG][NVA]YDFFVWL, at HLA-A0201, the “% inhibition at T=4H and T=24H FP 4h” value amounted to 79%; the “% inhibition at T=4H and T=24H FP 24h” value is recorded as 76%. Moreover, in assay [1], the “% CD8+ T cells producing IFN-γ peptide concentrations in picomolar 24H 0.5” value is recorded as 0%, the “Geometric mean IFN-γ … in picomolar 24H 0.5” value is listed as 76 arbitrary fluorescence units, the “% CD8+ T cells producing IFN-γ peptide concentrations in picomolar 24H 50” value came out at 15% and the “Geometric mean IFN-γ … in picomolar 24H 50” value is on record as 94 arbitrary fluorescence units. For the same substance, in assay [1], the “% CD8+ T cells producing IFN-γ peptide concentrations in picomolar 24H 5·10^3” value was found to be 29%, the “Geometric mean IFN-γ … in picomolar 24H 5·10^3” value is listed as 263 arbitrary fluorescence units, the “% CD8+ T cells producing IFN-γ peptide concentrations in picomolar 48H 0.5” value is 0% and the “Geometric mean IFN-γ … in picomolar 48H 0.5” value was 85 arbitrary fluorescence units. Also, in assay [1], the “% CD8+ T cells producing IFN-γ peptide concentrations in picomolar 48H 50” value worked out at 2%, the “% CD8+ T cells producing IFN-γ peptide concentrations in picomolar 48H 5·10^3” value is reported as 30% and the “Geometric mean IFN-γ … in picomolar 48H 5·10^3” value is reported as 188 arbitrary fluorescence units.

Regarding [PHG][NVA]YDFFVW[ALG], on HLA-A0201, the “% inhibition at T=4H and T=24H FP 4h” value amounted to 76%; the “% inhibition at T=4H and T=24H FP 24h” value came out at 73%. In addition, in assay [1], the “% CD8+ T cells producing IFN-γ peptide concentrations in picomolar 24H 0.5” value amounted to 0%, the “Geometric mean IFN-γ … in picomolar 24H 0.5” value is recorded as 84 arbitrary fluorescence units, the “% CD8+ T cells producing IFN-γ peptide concentrations in picomolar 24H 50” value worked out at 6% and the “Geometric mean IFN-γ … in picomolar 24H 50” value is recorded as 71 arbitrary fluorescence units. For the same substance, in assay [1], the “% CD8+ T cells producing IFN-γ peptide concentrations in picomolar 24H 5·10^3” value is 35%, the “Geometric mean IFN-γ … in picomolar 24H 5·10^3” value is 185 arbitrary fluorescence units, the “% CD8+ T cells producing IFN-γ peptide concentrations in picomolar 48H 0.5” value amounted to 1% and the “Geometric mean IFN-γ … in picomolar 48H 0.5” value is listed as 64 arbitrary fluorescence units. Also, in assay [1], the “% CD8+ T cells producing IFN-γ peptide concentrations in picomolar 48H 50” value was found to be 1%, the “Geometric mean IFN-γ … in picomolar 48H 50” value is on record as 64 arbitrary fluorescence units, the “% CD8+ T cells producing IFN-γ peptide concentrations in picomolar 48H 5·10^3” value was determined as 22% and the “Geometric mean IFN-γ … in picomolar 48H 5·10^3” value was 142 arbitrary fluorescence units.

On to [PHG][NVA]YDFFVW[PRG], for which, at HLA-A0201, the “% inhibition at T=4H and T=24H FP 4h” value came out at 83%; the “% inhibition at T=4H and T=24H FP 24h” value stood at 78%. Further, in assay [1], the “% CD8+ T cells producing IFN-γ peptide concentrations in picomolar 24H 0.5” value stood at 1%, the “Geometric mean IFN-γ … in picomolar 24H 0.5” value is recorded as 89 arbitrary fluorescence units, the “% CD8+ T cells producing IFN-γ peptide concentrations in picomolar 24H 50” value is on record as 6% and the “Geometric mean IFN-γ … in picomolar 24H 50” value is reported as 73 arbitrary fluorescence units. Further, in assay [1], the “% CD8+ T cells producing IFN-γ peptide concentrations in picomolar 24H 5·10^3” value amounted to 33%, the “Geometric mean IFN-γ … in picomolar 24H 5·10^3” value is on record as 183 arbitrary fluorescence units, the “% CD8+ T cells producing IFN-γ peptide concentrations in picomolar 48H 0.5” value was 0% and the “Geometric mean IFN-γ … in picomolar 48H 0.5” value was 66 arbitrary fluorescence units. In assay [1], the “% CD8+ T cells producing IFN-γ peptide concentrations in picomolar 48H 50” value worked out at 1%, the “Geometric mean IFN-γ … in picomolar 48H 50” value is recorded as 61 arbitrary fluorescence units, the “% CD8+ T cells producing IFN-γ peptide concentrations in picomolar 48H 5·10^3” value amounted to 21% and the “Geometric mean IFN-γ … in picomolar 48H 5·10^3” value is given as 139 arbitrary fluorescence units.

[am-phg][2-AOC]YDFFVWL: at HLA-A0201, the “% inhibition at T=4H and T=24H FP 4h” value was determined as 94%; the “% inhibition at T=4H and T=24H FP 24h” value worked out at 87%. In addition, in assay [1], the “% CD8+ T cells producing IFN-γ peptide concentrations in picomolar 24H 0.5” value came out at 0%, the “Geometric mean IFN-γ … in picomolar 24H 0.5” value is 78 arbitrary fluorescence units, the “% CD8+ T cells producing IFN-γ peptide concentrations in picomolar 24H 50” value turned out to be 12% and the “Geometric mean IFN-γ … in picomolar 24H 50” value is on record as 82 arbitrary fluorescence units. In addition, in assay [1], the “% CD8+ T cells producing IFN-γ peptide concentrations in picomolar 24H 5·10^3” value came out at 31%, the “Geometric mean IFN-γ … in picomolar 24H 5·10^3” value is recorded as 215 arbitrary fluorescence units, the “% CD8+ T cells producing IFN-γ peptide concentrations in picomolar 48H 0.5” value turned out to be 0% and the “Geometric mean IFN-γ … in picomolar 48H 0.5” value is given as 88 arbitrary fluorescence units. Also, in assay [1], the “% CD8+ T cells producing IFN-γ peptide concentrations in picomolar 48H 50” value came out at 1%, the “Geometric mean IFN-γ … in picomolar 48H 50” value is given as 70 arbitrary fluorescence units, the “% CD8+ T cells producing IFN-γ peptide concentrations in picomolar 48H 5·10^3” value is 30% and the “Geometric mean IFN-γ … in picomolar 48H 5·10^3” value is 143 arbitrary fluorescence units.

Consider [am-phg][2-AOC]YDFFVW[ALG], for which, at HLA-A0201, the “% inhibition at T=4H and T=24H FP 4h” value is recorded as 73%; the “% inhibition at T=4H and T=24H FP 24h” value is listed as 73%. In assay [1], the “% CD8+ T cells producing IFN-γ peptide concentrations in picomolar 24H 0.5” value came to 0%, the “Geometric mean IFN-γ … in picomolar 24H 0.5” value was 98 arbitrary fluorescence units, the “% CD8+ T cells producing IFN-γ peptide concentrations in picomolar 24H 50” value turned out to be 1% and the “Geometric mean IFN-γ … in picomolar 24H 50” value is listed as 69 arbitrary fluorescence units. Moreover, in assay [1], the “% CD8+ T cells producing IFN-γ peptide concentrations in picomolar 24H 5·10^3” value is 7%, the “Geometric mean IFN-γ … in picomolar 24H 5·10^3” value is 79 arbitrary fluorescence units, the “% CD8+ T cells producing IFN-γ peptide concentrations in picomolar 48H 0.5” value is 0% and the “Geometric mean IFN-γ … in picomolar 48H 0.5” value is recorded as 76 arbitrary fluorescence units. Moreover, in assay [1], the “% CD8+ T cells producing IFN-γ peptide concentrations in picomolar 48H 50” value is reported as 0%, the “Geometric mean IFN-γ … in picomolar 48H 50” value is reported as 80 arbitrary fluorescence units, the “% CD8+ T cells producing IFN-γ peptide concentrations in picomolar 48H 5·10^3” value was 4% and the “Geometric mean IFN-γ … in picomolar 48H 5·10^3” value was 71 arbitrary fluorescence units.
